Measured values published in US8008298B2, “Pyrrolopyrazine kinase inhibitors” (Roche Palo Alto, priority 2008, dated 2011).

| SMILES | melting point [°C] |
| --- | --- |
| CC1(C(=O)c2c[nH]c3ncc(-c4ccc(N5CCNCC5)cc4)nc23)CCCCC1 [Example 185, (1-Methyl-cyclohexyl)-[2-(4-piperazin-1-yl-phenyl)-5H-pyrrolo[2,3-b]pyrazin-7-yl]-methanone] | 214 to 216 |
| CC(=O)N1CCN(c2ccc(-c3cnc4[nH]cc(C(=O)C5(C)CCCCC5)c4n3)cc2)CC1 [Example 186, 1-(4-{4-[7-(1-Methyl-cyclohexanecarbonyl)-5H-pyrrolo[2,3-b]pyrazin-2-yl]-phenyl}-piperazin-1-yl)-ethanone] | 278 to 284.9 |
| COc1cc(-c2cnc3[nH]cc(C(=O)C4(C)CCC(O)CC4)c3n2)cc(OC)c1OC (centres unmarked) [Example 191, (4-Hydroxy-1-methyl-cyclohexyl)-[2-(3,4,5-trimethoxy-phenyl)-5H-pyrrolo[2,3-b]pyrazin-7-yl]-methanone] | 242 to 244 |
| CN(C)C1CCN(c2cccc(-c3cnc4[nH]cc(C(=O)C(C)(C)C)c4n3)c2)C1 (centres unmarked) [Example 202, 1-{2-[3-(3-Dimethylamino-pyrrolidin-1-yl)-phenyl]-5H-pyrrolo[2,3-b]pyrazin-7-yl}-2,2-dimethyl-propan-1-one] | 204 to 206 |
| CCNC1CCN(c2cccc(-c3cnc4[nH]cc(C(=O)C(C)(C)C)c4n3)c2)C1 (centres unmarked) [Example 208, 1-{2-[3-(3-Ethylamino-pyrrolidin-1-yl)-phenyl]-5H-pyrrolo[2,3-b]pyrazin-7-yl}-2,2-dimethyl-propan-1-one] | 200 to 202 |
| COC(=O)C1(C)CCN(c2cccc(-c3cnc4[nH]cc(C(=O)C(C)(C)C)c4n3)c2)C1 (centres unmarked) [Example 209, 1-{3-[7-(2,2-Dimethyl-propionyl)-5H-pyrrolo[2,3-b]pyrazin-2-yl]-phenyl}-3-methyl-pyrrolidine-3-carboxylic acid methyl ester] | 198 to 200 |
| CNC(=O)C1(C)CCN(c2cccc(-c3cnc4[nH]cc(C(=O)C(C)(C)C)c4n3)c2)C1 (centres unmarked) [Example 210, 1-{3-[7-(2,2-Dimethyl-propionyl)-5H-pyrrolo[2,3-b]pyrazin-2-yl]-phenyl}-3-methyl-pyrrolidine-3-carboxylic acid methylamide] | 252 to 254 |
| CC1(N)CCN(c2cccc(-c3cnc4[nH]cc(C(=O)C(C)(C)C)c4n3)c2)C1 (centres unmarked) [Example 212, 1-{2-[3-(3-Amino-3-methyl-pyrrolidin-1-yl)-phenyl]-5H-pyrrolo[2,3-b]pyrazin-7-yl}-2,2-dimethyl-propan-1-one] | 216 to 218 |
| COc1cc(-c2cnc3[nH]cc(C(=O)C4(C)CCC(=O)C4)c3n2)cc(OC)c1OC (centres unmarked) [Example 214, 3-Methyl-3-[2-(3,4,5-trimethoxy-phenyl)-5H-pyrrolo[2,3-b]pyrazine-7-carbonyl]-cyclopentanone] | 238 to 240 |
| CC1(C(=O)c2c[nH]c3ncc(-c4cccc(N5CCCC5)c4)nc23)CC[C@@H]2CCC[C@@H]21 (stereo partly drawn) [Example 215, ((3aS,6aS)-1-Methyl-octahydro-pentalen-1-yl)-[2-(3-pyrrolidin-1-yl-phenyl)-5H-pyrrolo[2,3-b]pyrazin-7-yl]-methanone] | 200 to 202 |
| CC(C)(C)C(=O)c1c[nH]c2ncc(-c3cccc(N)c3)nc12 [Example 226, 1-[2-(3-Amino-phenyl)-5H-pyrrolo[2,3-b]pyrazin-7-yl]-2,2-dimethyl-propan-1-one] | 239 to 241 |
| CCNc1cccc(-c2cnc3[nH]cc(C(=O)C(C)(C)C)c3n2)c1 [Example 227, 1-[2-(3-Ethylamino-phenyl)-5H-pyrrolo[2,3-b]pyrazin-7-yl]-2,2-dimethyl-propan-1-one] | 189 to 191 |
| CC(=O)Nc1cccc(-c2cnc3[nH]cc(C(=O)C(C)(C)C)c3n2)c1 [Example 228, N-{3-[7-(2,2-Dimethyl-propionyl)-5H-pyrrolo[2,3-b]pyrazin-2-yl]-phenyl}-acetamide] | 249 to 250 |
| CC(C)(C)C(=O)c1c[nH]c2ncc(-c3cccc(N4CCS(=O)(=O)CC4)c3)nc12 [Example 230, 1-{2-[3-(1,1-Dioxo-1lambda*6*-thiomorpholin-4-yl)-phenyl]-5H-pyrrolo[2,3-b]pyrazin-7-yl}-2,2-dimethyl-propan-1-one] | 279 to 280 |
| CC(C)(C)C(=O)c1c[nH]c2ncc(-c3cccc(-n4cccc4)c3)nc12 [Example 232, 2,2-Dimethyl-1-[2-(3-pyrrol-1-yl-phenyl)-5H-pyrrolo[2,3-b]pyrazin-7-yl]-propan-1-one] | 220 to 222 |
| CC(C)(C)C(=O)c1c[nH]c2ncc(-c3cccc(NS(=O)(=O)c4ccccc4)c3)nc12 [Example 234, N-{3-[7-(2,2-Dimethyl-propionyl)-5H-pyrrolo[2,3-b]pyrazin-2-yl]-phenyl}-benzenesulfonamide] | 217 to 219 |
| CC(C)(C)C(=O)c1c[nH]c2ncc(-c3cccc(NS(=O)(=O)c4ccc(N)cc4)c3)nc12 [Example 235, 4-Amino-N-{3-[7-(2,2-dimethyl-propionyl)-5H-pyrrolo[2,3-b]pyrazin-2-yl]-phenyl}-benzenesulfonamide] | 285 to 286 |
| CC(C)(C)C(=O)c1c[nH]c2ncc(-c3cccc(NC4=NCCN4)c3)nc12 [Example 236, 1-{2-[3-(4,5-Dihydro-1H-imidazol-2-ylamino)-phenyl]-5H-pyrrolo[2,3-b]pyrazin-7-yl}-2,2-dimethyl-propan-1-one] | 228 to 230 |
| CC(C)(C)C(=O)c1c[nH]c2ncc(-c3cccc(C#N)c3)nc12 [Example 237, 3-[7-(2,2-Dimethyl-propionyl)-5H-pyrrolo[2,3-b]pyrazin-2-yl]-benzonitrile] | 248 to 249 |
| COc1cc(-c2cnc3[nH]cc(C(=O)N4CCCC4)c3n2)cc(OC)c1OC [Example 240, Pyrrolidin-1-yl-[2-(3,4,5-trimethoxy-phenyl)-5H-pyrrolo[2,3-b]pyrazin-7-yl]-methanone] | 210 to 212 |
| CCOc1cc(-c2cnc3[nH]cc(C(=O)C(C)(C)C)c3n2)cc(N2CCCC2)c1 [Example 262, 1-[2-(3-Ethoxy-5-pyrrolidin-1-yl-phenyl)-5H-pyrrolo[2,3-b]pyrazin-7-yl]-2,2-dimethyl-propan-1-one] | 236 to 237 |
| CC(C)(C)C(=O)c1c[nH]c2ncc(-c3cc(OCCS(C)(=O)=O)cc(N4CCCC4)c3)nc12 [Example 267, 1-{2-[3-(2-Methanesulfonyl-ethoxy)-5-pyrrolidin-1-yl-phenyl]-5H-pyrrolo[2,3-b]pyrazin-7-yl}-2,2-dimethyl-propan-1-one] | 230 to 232 |
| COc1cc(-c2cnc3[nH]cc(C(=O)C(C)(C)C)c3n2)cc(N2CC[S+]([O-])CC2)c1 [Example 269, 1-{2-[3-Methoxy-5-(1-oxo-1lambda*4*-thiomorpholin-4-yl)-phenyl]-5H-pyrrolo[2,3-b]pyrazin-7-yl}-2,2-dimethyl-propan-1-one] | 259 to 260 |
| Cn1nccc1-c1ccc(-c2cnc3[nH]cc(C(=O)C(C)(C)C)c3n2)cc1 [Example 281, 2,2-Dimethyl-1-{2-[4-(2-methyl-2H-pyrazol-3-yl)-phenyl]-5H-pyrrolo[2,3-b]pyrazin-7-yl}-propan-1-one] | 257 to 258 |
| CC(C)(C)C(=O)c1c[nH]c2ncc(-c3cccc(N4CC5(COC5)C4)c3)nc12 [Example 282, 2,2-dimethyl-1-{2-[3-(2-oxa-6-aza-spiro[3.3]hept-6-yl)-phenyl]-5H-pyrrolo[2,3-b]pyrazin-7-yl}-propan-1-one] | 260 to 262 |
| CC1(C(=O)c2c[nH]c3ncc(-c4cccc(N5CCCC5=O)c4)nc23)CCCCC1 [Example 283, 1-{3-[7-(1-methyl-cyclohexanecarbonyl)-5H-pyrrolo[2,3-b]pyrazin-2-yl]-phenyl}-pyrrolidin-2-one] | 215 to 217 |

Next, values leading:

| melting point [°C] | SMILES |
| --- | --- |
| 186 to 187 | COc1ccc(F)cc1-c1cnc2[nH]cc(C(=O)CC(C)C)c2n1 [Example I-5, 1-[2-(5-Fluoro-2-methoxy-phenyl)-5H-pyrrolo[2,3-b]pyrazin-7-yl]-3-methyl-butan-1-one] |
| 260 to 261 | CC(C)CC(=O)c1c[nH]c2ncc(-c3cccc(N4CCCC4)c3)nc12 [Example I-6, 3-Methyl-1-[2-(3-pyrrolidin-1-yl-phenyl)-5H-pyrrolo[2,3-b]pyrazin-7-yl]-butan-1-one] |
| 243 to 244 | CNC(=O)c1cccc(-c2cnc3[nH]cc(C(=O)CC(C)C)c3n2)c1 [Example I-9, N-Methyl-3-[7-(3-methyl-butyryl)-5H-pyrrolo[2,3-b]pyrazin-2-yl]-benzamide] |
| 198.4 to 202.7 | CC(C)(C)C(=O)c1c[nH]c2ncc(-c3ccc(OCCN4CCOCC4)cc3)nc12 [Example I-40, 2,2-Dimethyl-1-{2-[4-(2-morpholin-4-yl-ethoxy)-phenyl]-5H-pyrrolo[2,3-b]pyrazin-7-yl}-propan-1-one] |
| 152.9 to 154.7 | CC(C)(C)C(=O)c1c[nH]c2ncc(-c3cccc(OCCN4CCOCC4)c3)nc12 [Example I-41, 2,2-Dimethyl-1-{2-[3-(2-morpholin-4-yl-ethoxy)-phenyl]-5H-pyrrolo[2,3-b]pyrazin-7-yl}-propan-1-one] |
| 215.2 to 215.8 | CC(C)(C)OC(=O)N1CCN(c2cccc(-c3cnc4[nH]cc(C(=O)C(C)(C)C)c4n3)c2)CC1 [Example I-44, 4-{3-[7-(2,2-Dimethyl-propionyl)-5H-pyrrolo[2,3-b]pyrazin-2-yl]-phenyl}-piperazine-1-carboxylic acid tert-butyl ester] |
| 234 to 246 | CC(C)(C)C(=O)c1c[nH]c2ncc(-c3ccc(N4CCNCC4)cc3)nc12 [Example I-45, 2,2-Dimethyl-1-[2-(4-piperazin-1-yl-phenyl)-5H-pyrrolo[2,3-b]pyrazin-7-yl]-propan-1-one] |
| 216 to 222 | CC(C)(C)C(=O)c1c[nH]c2ncc(-c3cccc(N4CCNCC4)c3)nc12 [Example I-46, 2,2-Dimethyl-1-[2-(3-piperazin-1-yl-phenyl)-5H-pyrrolo[2,3-b]pyrazin-7-yl]-propan-1-one] |
| 266 to 267 | CC(=O)N1CCN(c2ccc(-c3cnc4[nH]cc(C(=O)C(C)(C)C)c4n3)cc2)CC1 [Example I-99, 1-{2-[4-(4-Acetyl-piperazin-1-yl)-phenyl]-5H-pyrrolo[2,3-b]pyrazin-7-yl}-2,2-dimethyl-propan-1-one] |
